Assay results as given in patent US7368453B2, “Quinazolinone compounds with reduced bioaccumulation” (Chiron Corporation, priority 2003, dated 2008).
Where two headings read alike, the source gives them in different places.

Experiment: Tissue half-life (t1/2) and Cmax in plasma, brain, kidney and liver after oral administration to CD-1 mice
Assay type: in vivo, mouse
Settings: for half-life: male, mouse
Description: In vivo studies were conducted to observe the effect of the compounds of the invention in the subject animal. Male CD-1 mice, body weight of 20 grams at arrival, were used in these studies. Mice were given 30 mg/kg of compound in HPMC/Tween solution or suspension via oral gavage. Plasma, brain, and liver samples were collected at time periods of 1, 2, 4, 8, and 24 hours post dosing. One mouse was used per time point. Thus, a total of 5 mice were used for each compound tested. For sample collection, mice were euthanized with CO2. Blood samples were taken by cardiac puncture and kept on ice. Brain and liver samples were collected immediately after bleeding and the samples were kept on dry ice. For calculation of tissue half-lives (t1/2s), the terminal rate constant k was estimated by the absolute value of the slope of a log-linear regression of the terminal phase of the tissue concentration-time profile. The tissue half-life t1/2 is ln(2)/k.
The following table includes t1/2 data for plasma, brain, kidney, and liver obtained after oral administration.
Tissue Half-Life Data for Various Quinazolinone Compounds (PO)

[1] = brain t1/2, 30 mg/kg oral gavage (PO)
[2] = liver t1/2, 30 mg/kg oral gavage (PO)
[3] = plasma t1/2, 30 mg/kg oral gavage (PO)
[4] = kidney t1/2, 30 mg/kg oral gavage (PO), read-out: Half-Lives (h) Kidney (converted)
[5] = liver t1/2, 30 mg/kg oral gavage (PO), read-out: Half-Lives (h) Liver (converted)
[6] = plasma t1/2, 30 mg/kg oral gavage (PO), read-out: Half-Lives (h) Plasma (converted)
[7] = brain t1/2, 30 mg/kg oral gavage (PO), read-out: Half-Lives (h) Brain (converted)

Half-Lives (h) Brain [1] [h] | Half-Lives (h) Liver [2] [h] | Half-Lives (h) Plasma [3] [h] | half-life [4] [h] | half-life [5] [h] | half-life [6] [h] | half-life [7] [h] | Compound
– | – | – | 5.1 | 4.6 | 18.9 | – | C[C@@H]1[C@@H](/N=C(/Nc2ccc3c(=O)n(CCc4ccc(Cl)cc4Cl)cnc3c2)N2CC(O)C2)C[C@@H]2C[C@H]1C2(C)C [Example 337, N-{3-[2-(2,4-dichlorophenyl)ethyl]-4-oxo-3,4-dihydro-7-quinazolinyl}-3-hydroxy-N′-[(1R,2S,3S,5S)-2,6,6-trimethylbicyclo[3.1.1]hept-3-yl]-1-azetidinecarboximidamide]
– | – | – | 8.6 | 6.8 | 4 | 5.4 | COc1ccc(CCn2c(-c3cnccn3)nc3cc(NC(=N[C@H]4C[C@H]5C[C@@H]([C@@H]4C)C5(C)C)N4CCN[C@@H](CF)C4)ccc3c2=O)c(F)c1 [Example 251, (3R)-N-{3-[2-(2-fluoro-4-methoxyphenyl)ethyl]-4-oxo-2-pyrazin-2-yl-3,4-dihydroquinazolin-7-yl}-3-(fluoromethyl)-N′-[(1S,2S,3S,5R)-2,6,6-trimethylbicyclo[3.1.1]hept-3-yl]piperazine-1-carboximidamide]
– | – | – | – | 3 | 20 | 12 | C[C@@H]1[C@@H](N=C(Nc2ccc3c(=O)n(CCc4ccc(F)cc4)c(CF)nc3c2)N2CCN[C@@H](CF)C2)C[C@H]2C[C@@H]1C2(C)C [Example 257, (3R)-3-(fluoromethyl)-N-{2-(fluoromethyl)-3-[2-(4-fluorophenyl)ethyl]-4-oxo-3,4-dihydroquinazolin-7-yl}-N′-[(1 S,2S,3S,5R)-2,6,6-trimethylbicyclo[3.1.1]hept-3-yl]piperazine-1-carboximidamide]
– | – | – | 11 | 8 | 18 | 12 | COc1ccc(CCn2c(-c3cccnc3)nc3cc(NC(=N[C@H]4C[C@H]5C[C@@H]([C@@H]4C)C5(C)C)N4CCN(CC#N)[C@@H](C)C4)ccc3c2=O)c(F)c1 [Example 247, (3S)-4-(cyanomethyl)-N-{3-[2-(2-fluoro-4-methoxyphenyl)ethyl]-4-oxo-2-pyridin-3-yl-3,4-dihydroquinazolin-7-yl}-3-methyl-N′-[(1S,2S,3S,5R)-2,6,6-trimethylbicyclo[3.1.1]hept-3-yl]piperazine-1-carboximidamide]
– | – | – | 7.3 | – | 7.2 | – | C[C@@H]1[C@@H](/N=C(/Nc2ccc3c(=O)n(CCc4ccc(Cl)cc4Cl)cnc3c2)N2CCNC(=O)C2)C[C@@H]2C[C@H]1C2(C)C [Example 260, N-{3-[2-(2,4-dichlorophenyl)ethyl]-4-oxo-3,4-dihydroquinazolin-7-yl]-3-oxo-N′-[(1R,2S,3S,5S)-2,6,6-trimethylbicyclo[3.1.1]hept-3-yl]piperazine-1-carboximidamide]
15 | 4.3 | 5.4 | – | – | – | – | COc1ccc(CCn2c(C#N)nc3cc(NC(=NC4C[C@H]5C[C@@H]([C@@H]4C)C5(C)C)N4CCN[C@@H](CF)C4)ccc3c2=O)c(F)c1 (stereo partly drawn) [Example 256, (3R)-N-{2-cyano-3-[2-(2-fluoro-4-methoxyphenyl)ethyl]-4-oxo-3,4-dihydroquinazolin-7-yl}-3-(fluoromethyl)-N′-[(1S,2S,5R)-26,6-trimethylbicyclo[3.1.1]hept-3-yl]piperazine-1-carboximidamide]
– | – | – | – | 9.5 | 3.3 | 4.9 | COc1ccc(CCn2c(-c3cccnc3)nc3cc(N/C(=N/[C@H]4C[C@@H]5C[C@H]([C@@H]4C)C5(C)C)N4C[C@@H](C)N(C#N)[C@@H](C)C4)ccc3c2=O)c(F)c1 [Example 295]

Continued, compound first:

Compound | Half-Lives (h) Brain [1] [h] | Half-Lives (h) Liver [2] [h] | Half-Lives (h) Plasma [3] [h] | half-life [4] [h] | half-life [5] [h] | half-life [6] [h] | half-life [7] [h]
(3S)-N-{3-[2-(4-chlorophenyl)ethyl]-4-oxo-2-piperidin-3-yl-3,4-dihydroquinazolin-7-yl}-3-methyl-5-oxo-N′-[(1S,2S,3S,5R)-2,6,6-trimethylbicyclo[3.1.1]hept-3-yl]piperazine-1-carboximdamide [Example 241] | 51 | 17 | 21 | – | – | – | –
COc1ccc(CCn2c(CN3CCN(C)CC3)nc3cc(NC(=N[C@H]4C[C@H]5C[C@@H]([C@@H]4C)C5(C)C)N4CC(=O)N[C@@H](C)C4)ccc3c2=O)c(F)c1 [Example 239, (3S)-N-{3-[2-(2-fluoro-4-methoxyphenyl)ethyl]-2-[(4-methylpiperazin-1-yl)methyl]-4-oxo-3,4-dihydroquinazolin-7-yl}-3-methyl-5-oxo-N-[(1S,2S,3S,5R)-2,6,6-trimethylbicyclo[3.1.1]hept-3-yl]piperazine-1-carboximidamide] | – | – | – | – | – | 4.5 | 3.6
COc1ccc(CCn2c(-c3cccnc3)nc3cc(NC(=N[C@H]4C[C@H]5C[C@@H]([C@@H]4C)C5(C)C)N4CC(=O)N[C@@H](C)C4)ccc3c2=O)c(F)c1 [Example 216, (3S)-N-{3-[2-(2-fluoro-4-methoxyphenyl)ethyl]-4-oxo-2-pyridin-3-yl-3,4-dihydroquinazolin-7-yl}-3-methyl-5-oxo-N′-[(1S,2S,3S,5R)-2,6,6-trimethylbicyclo[3.1.1]hept-3-yl]piperazine-1-carboximidamide] | – | – | – | 2.7 | 2.1 | 1.9 | 14
C[C@@H]1[C@@H](N=C(Nc2ccc3c(=O)n(CCc4ccc(F)cc4)c(-c4cnccn4)nc3c2)N2CC(=O)N[C@@H](C)C2)C[C@H]2C[C@@H]1C2(C)C [Example 218, (3S)-N-{3-[2-(4-fluorophenyl)ethyl]-4-oxo-2-pyrazin-2-yl-3,4-dihydroquinazolin-7-yl}-3-methyl-5-oxo-N′-[(1S,2S,3S,5R)-2,6,6-trimethylbicyclo[3.1.1]hept-3-yl]piperazine-1-carboximidamide] | – | – | – | – | 3.9 | 2.2 | –
C[C@@H]1[C@@H](N=C(Nc2ccc3c(=O)n(CCc4ccc(Br)cc4)c(-c4cccnc4)nc3c2)N2CC(=O)N[C@@H](C)C2)C[C@H]2C[C@@H]1C2(C)C [Example 230, (3S)-N-{3-[2-(4-bromophenyl)ethyl]-4-oxo-2-pyridin-3-yl-3,4-dihydroquinazolin-7-yl}-3-methyl-5-oxo-N′-[(1S,2S,3S,5R)-2,6,6-trimethylbicyclo[3.1.1]hept-3-yl]piperazine-1-carboximidamide] | – | – | – | – | 5.9 | 3.1 | –
COc1ccc(CCn2c(-c3cccnc3)nc3cc(N/C(=N/C4C[C@H]5C[C@@H]([C@@H]4C)C5(C)C)N4CCN(C#N)[C@@H](C)C4)ccc3c2=O)c(F)c1 (some centres unmarked) [Example 246] | – | – | – | 3.1 | 18 | 5.7 | 5.8
C[C@@H]1[C@@H](N=C(Nc2ccc3c(=O)n(CCc4ccc(Br)cc4)c(-c4cnccn4)nc3c2)N2CCN[C@@H](C(F)F)C2)C[C@H]2C[C@@H]1C2(C)C [Example 231, (3R)-N-{3-[2-(4bromophenyl)ethyl]-4-oxo-2-pyrazin-2-yl-3,4-dihydroquinazolin-7-yl]-3-(difluoromethyl)-N′-[(1S,2S,3S,5R)-2,6,6-trimethylbicyclo[3.1.1]hept-3-yl]piperazine-1-carboximidamide] | – | – | – | – | 4.6 | 2.6 | 15
COc1ccc(CCn2c(NC3CC3)nc3cc(NC(=N[C@H]4C[C@H]5C[C@@H]([C@@H]4C)C5(C)C)N4CC(=O)N[C@@H](C)C4)ccc3c2=O)c(F)c1 [Example 224, (3S)-N-{2-(cyclopropylamino)-3-[2-(2-fluoro-4-methoxyphenyl)ethyl]-4-oxo-3,4-dihydroquinazolin-7-yl}-3-methyl-5-oxo-N′-[(1S,2S,3S,5R)-2,6,6-trimethylbicyclo[3.1.1]hept-3-yl]piperazine-1-carboximidamide] | – | – | – | – | 3.1 | 3 | 10
C[C@@H]1[C@@H](N=C(Nc2ccc3c(=O)n(CCc4ccc(Br)cc4)c(-c4cccnc4)nc3c2)N2CCN[C@@H](C(F)F)C2)C[C@H]2C[C@@H]1C2(C)C [Example 227, (3R)-N-{3-[2-(4-bromophenyl)ethyl]-4-oxo-2-pyridin-3-yl-3,4-dihydroquinazolin-7-yl}-3-(difluoromethyl)-N′-[(1S,2S,3S,5R)-2,6,6-trimethylbicyclo[3.1.1]hept-3-yl]piperazine-1-carboximidamide] | – | – | – | – | 9.4 | 3.9 | –
C[C@@H]1C(/N=C(/Nc2ccc3c(=O)n(CCc4ccc(Cl)cc4Cl)c(-c4cnccn4)nc3c2)N2CC(=O)N[C@@H](C)C2)C[C@H]2C[C@@H]1C2(C)C (stereo partly drawn) [Example 229, (3S)-N-{3-[2-(2,4-dichlorophenyl)ethyl]-4-oxo-2-pyrazin-2-yl-3,4-dihydroquinazolin-7-yl}-3-methyl-5-oxo-N′-[(1S,2S3S,5R)-2,6,6-trimethylbicyclo[3.1.1]hept-3-yl]piperazine-1-carboximidamide] | – | – | – | – | 16 | 9 | 13
C[C@@H]1[C@@H](N=C(Nc2ccc3c(=O)n(CCc4ccc(Br)cc4F)c(-c4cnccn4)nc3c2)N2CCN[C@@H](C(F)F)C2)C[C@H]2C[C@@H]1C2(C)C [Example 233, (3R)-N-{3-[2-(4-bromo-2-fluorophenyl)ethyl]-4-oxo-2-pyrazin-2-yl-3,4-dihydroquinazolin-7-yl}-3-(difluoromethyl)-N′-[(1S,2S,3S,5R)-2,6,6-trimethylbicyclo[3.1.1]hept-3-yl]piperazine-1-carboximidamide] | – | – | – | – | 44 | 6.4 | 15
